The text below walks through data of patent publication US6596882B2, “Recovery and purification of 3,4-epoxy-1-butene using water-miscible solvents” (Eastman Chemical Company, priority 2001, dated 2003).

Data set [1] can be described thus: Relative distribution coefficient of epoxybutene into the aqueous phase in the presence of a water-miscible solvent. It counts as physicochemical. To be noted: one part solvent added to two parts of 2:1 water-epoxybutene mixture, room temperature, aqueous phase by GC; relative to water alone (=1.00). How it is done: This example compares the absorption affinity of various water-miscible solvents for epoxybutene in the presence of water, as occurs in the absorbent zone of the present invention. A standard mixture of 2 parts by weight water and one part by weight epoxybutene was prepared. A portion of the standard solution was placed in a separatory funnel, shaken, allowed to settle, then separated into two liquid phases at room temperature. The water phase was analyzed by gas chromatography to determine the solubility of epoxybutene in pure water. Next, for each solvent specified in Table I, one part by weight water-miscible solvent was added to two parts of the standard water-epoxybutene solution. Each water-solvent-epoxybutene solution was placed in a separatory funnel, shaken, allowed to settle, then separated into two liquid phases at room temperature. The aqueous phase from the decantation was analyzed by gas chromatography to determine the epoxybutene solubility in that phase. From these compositions, distribution coefficients were calculated as: [formula]
The relative affinity of solvents for absorption of epoxybutene was determined from a relative molar distribution term, calculated as: [formula]

Data set [2] in a line: Rate of epoxybutene hydrolysis in phosphate buffers at different pH, followed by UV spectrophotometry. Format: physicochemical. The method, then: The rate of epoxybutene hydrolysis was determined at several different pH levels according to the following procedure: A stirred, thermostatted cell was filled with a solution of buffered water and allowed to equilibrate at a temperature of 29° C. Phosphate buffers at a pH of 3, 5, 7, 8, 9, and 11 were prepared by adding either phosphoric acid or sodium hydroxide to a 0.05 M solution of disodium phosphate. For each experiment, the buffer solution was charged to a stirred, thermostatted equilibrium cell equipped with an UV spectrophometer probe. Once the solution had equilibrated at 29° C. and a background spectra had been collected, a 10 microliter standard sample of epoxybutene in acetronitrile (warmed to 29° C.) was injected into the cell to give an initial concentration of 0.01M epoxybutene. The disappearance of epoxybutene and formation of 3-butene-1,2-diol over time was followed by UV spectrophotometry.

The conditions of data set [3]: 25° C.; cited from earlier work.

Consider `CC(O)CO` (stereo not shown) [Propylene Glycol], for which the “Relative Distribution” value in data set [1] was 1.90.

`CCCCOCCO` [2-Butoxyethanol]: the “Relative Distribution” value in data set [1] is 1.29.

For `COCC(C)O` (stereo not shown) [Propylene Glycol Monomethyl Ether], the “Relative Distribution” value in data set [1] came out at 2.02.

Turning to `CCCCOCCOCCO` [2-(2-Butoxyethoxy)ethanol], in data set [1], the “Relative Distribution” value was 4.30.

Take `COCCOCCO` [2-(2-Methoxyethoxy)ethanol]: the “Relative Distribution” value in data set [1] is given as 1.83.

`OCCO` [Ethylene Glycol]: in data set [1], the “Relative Distribution” value turned out to be 1.14.

With `CN1CCCC1=O` [1-Methyl-2-Pyrrolidinone], the “Relative Distribution” value in data set [1] stood at 2.78.

Consider `CCCOCCO` [2-Propoxyethanol], for which the “Relative Distribution” value in data set [1] was found to be 1.49.

Take `c1ccc2ncccc2c1` [Quinoline]: in data set [1], the “Relative Distribution” value was 1.03.

`CC#N` [Acetonitrile]: the “Relative Distribution” value in data set [1] was 1.89.

Regarding `C=CC1CO1` (stereo not shown) [Epoxybutene, 3,4-epoxy-1-butene], the “Relative Rate of Epoxybutene Hydrolysis” value in data set [2] (pH 3, phosphate buffer, 29° C., relative to pH 7) was 555.5; in data set [2] (pH 3, phosphate buffer, 29° C., relative to pH 7, listed as epoxybutene) it was “over 500”; in data set [2] (pH 5, phosphate buffer, 29° C., relative to pH 7), 5.6; in data set [2] (pH 7, phosphate buffer, 29° C. (reference)), 1.0; in data set [2] (pH 8, phosphate buffer, 29° C., relative to pH 7), 0.7; in data set [2] (pH 8, phosphate buffer, 29° C., relative to pH 7, listed as epoxybutene), “about 0.7”. The “Relative Rate of Epoxybutene Hydrolysis” value is listed as 3.2 in data set [2] (pH 9, phosphate buffer, 29° C., relative to pH 7); 17.6 in data set [2] (pH 11, phosphate buffer, 29° C., relative to pH 7); “over 17” in data set [2] (pH 11, phosphate buffer, 29° C., relative to pH 7, listed as epoxybutene). The “solubility of epoxybutene in water” value in data set [3] is given as 5 to 6 weight percent.

On to `C[S+](C)[O-]` [Dimethylsulfoxide], for which the “Relative Distribution” value in data set [1] came out at 1.40.

With `COCCOCCOCCOC` [Triglyme], in data set [1], the “Relative Distribution” value is recorded as 1.54.

Regarding `C=CC(O)CO` (stereo not shown) [3-Buten-1,2-Diol], the “Relative Distribution” value in data set [1] turned out to be 1.39.

In the case of `CN(C)C=O` [Dimethylformamide], in data set [1], the “Relative Distribution” value turned out to be 2.44.

Regarding `COC(C)COC(C)=O` (stereo not shown) [2-Methoxypropyl Acetate], the “Relative Distribution” value in data set [1] is on record as 1.05.
